Legend:
Type in all cases: in vivo, mouse
TA muscles [1] = test: [18F]-FDG PET imaging of treated TA muscles; conditions: after CL316,243-stimulated sympathetic activation; normalized to contralateral TA muscles; 2 months after treatment
Text: Metabolically active BAT has been identified in adult human by [^18F]-fluorodeoxyglucose positron emission tomography ([^18F]-FDG PET), due to dramatic glucose uptake by this tissue after sympathetic activation (Nedergaard et al., 2007). To visualize active brown adipose tissue within muscle, Applicant performed [^18F]-FDG PET imaging on control- or miR-133 ASO treated mice (n=5 for 133 ASO treated mice, n=4 for control treated muscle; 2 months after treatment) after acute sympathetic activation by selective β3-adrenergic receptor agonist, CL316,243 (FIG. 5E). Applicant observed a dramatic increase of FDG uptake in miR-133 ASO treated TA muscles compared to contralateral TA muscles or TA muscles within control ASO treated mice. To rule out possible direct and indirect effects of CL316,243 on glucose/FDG uptake by skeletal muscle cells, Applicant normalized FDG activities derived from ROIs of treated TA muscles to those of contralateral TA muscles (FIG. 5F). […] Such a drastic increase was not observed without the sympathetic activation preceding anesthesia (baseline).
Mouse PET imaging was performed with an Inveon PET scanner (Siemens Preclinical Solutions, Knoxyille, Tenn., USA). Control- or miR-133 ASO treated C57BL/6 male mice fed with regular diet were anesthetized under 2% isoflurane. […]

hindlimbs = test: Thermographic imaging of hindlimb surface temperature
Procedure: Mouse thermographic imaging was performed with a FUR T640 infrared camera with highest sensitivity set to ˜35° C. Control- or miR-133 ASO treated C57BL/6 male mice fed with either a regular diet or a high fat diet were shaved at both of the hindlimbs one day before the imaging. Subject mice were quickly anesthetized under ˜1% isoflurane and thermographic images were taken immediately after the mice were anesthetized (within 2 minutes). Data analysis was performed using FUR QuickReport software with measuring crosses set on the TA muscle areas on lower hindlimbs and the neck areas.

TA muscles [2] = test: High-resolution respirometry on TA muscles after ASO treatment
Text: To quantify bioenergetic effects of miR-133 ASO induced BAT in muscle, Applicant performed high-resolution respirometry on TA muscles after 2 months of either control- or miR-133 ASO treatment (C57BL/6 male fed on RD, n=6 in each treatment group). […] This marked difference in the response to FA is consistent with reported acute activation of mitochondrial respiration rates in brown adipocytes exposed to fatty acids (Matthias et al., 2000).
Surgically extracted tibialis anterior (TA) and contralateral soleus (SOL) muscles were immediately placed in ice-cold biopsy preservation solution (BIOPS) containing […], 7.23 mM K2EGTA buffer, 0.1 μM free calcium, 20 mM imidazole, 20 mM taurine, 50 mM 2-(N-Morpholino)ethanesulfonic acid hydrate (K-MES), 0.5 mM dithiothreitol (DTT), 6.56 mM […], 5.77 mM ATP, and 15 mM phosphocreatine (pH 7.1). The TA muscle was cut longitudinally into 4 equal parts, 2 of which were assessed by respirometry as intact cells and 2 after chemical permeabilization of the sarcolemma. The SOL muscle was cut in half longitudinally and both sections were permeabilized before respirometry. Prior to permeabilization muscle samples were gently dissected with two pairs of sharp forceps, achieving a high degree of fibre separation verified microscopically. Chemical permeabilization was achieved by incubation of the fibres with saponin (50 μg/mL) in 2 mL of BIOPS for 30 minutes at 4° C. (Gnaiger, 2009b). Permeabilized samples were then rinsed with a mitochondrial respiration medium (MiR05) containing 0.5 mM EGTA, 3 mM MgCl2.6H2O, 60 mM K-lactobionate, 20 mM taurine, 10 mM KH2PO4, 20 mM HEPES, 110 mM sucrose, and 1 g/L bovine serum albumin (pH 7.1).
Muscle bundles (both intact TA, and permeabilized TA and SOL) were blotted and measured for wet weight in a balance controlled for constant relative humidity, providing hydration consistency and stability of weight measurements. Each sample was then placed into a single chamber of the high-resolution Oroboros Oxygraph-2k (Oroboros, Innsbruck, Austria) containing MiR05 solution and measured at 37° C. The Oxygraph is a two-chamber titration-injection respirometer with an oxygen detection limit of up to 0.5 pmol·sec^−1·mL^−1. Standardized instrumental calibrations were performed to correct for back-diffusion of oxygen into the chamber from the various components, leak from the exterior, and sensor oxygen consumption. Oxygen flux was resolved by software allowing nonlinear changes in the negative time derivative of the oxygen concentration signal (Oxygraph 2k, Oroboros, Innsbruck, Austria).
Leak respiration was induced with the addition of malate (2 mM) and octanoyl carnitine (0.2 mM). This state represents the oxygen consumption of an unaltered and intact electron transport system (ETS) without the exogenous provision of adenylates. In the LN state, the chemiosmotic gradient is at maximum and oxygen flux represents proton leak, slip, and cation cycling in muscle (Pesta and Gnaiger, 2011) and maximal respiration in BAT induced by fatty acids (Matthias et al. 2000). Further uncoupling of the ETS in muscle cells was assessed with the proton ionophore, carbonyl cyanide p-(trifluoromethoxy) phenylhydrazone (FCCP; 0.7 μM per titration up to concentrations ranging from 2.5-4 μM) to achieve a maximal uncoupling response.
Leak respiration in the absence of adenylates (LN) was induced with the addition of malate (2 mM) and octanoyl carnitine (0.2 mM). Lipid oxidative phosphorylation capacity (PETF) and maximal electron flow through electron transferring-flavoprotein (ETF) was determined following the addition of ADP (5 mM). […]

*mA*mUmAmGmCmUmGmGmUmUmGmAmAmGmGmGmGmAmC*mC*mA*mA*mAChl [miR-133 ASO]
increase of glucose/FDG uptake compared to control (TA muscles [1]): 1.3 fold | surface temperature of treated hindlimbs higher than control hindlimbs (hindlimbs; mice fed with HFD): 0.9 °C | surface temperature of treated hindlimbs higher than control hindlimbs (hindlimbs; mice fed with RD): 0.7 °C | additional energy expenditure in the treated TA muscle from uncoupling respiration (TA muscles [2]; by calculation): 0.3 cal/h/mg | higher respiration rate versus control (TA muscles [2]; intact TA muscle with FA): 1.75 fold | mitochondrial respiration rate after titration of FA (octanoyl carnitine), uncoupled/intact cells (TA muscles [2]; intact TA muscle, 2 months after treatment, C57BL/6 male on RD, n=6): 13.5±1 pmol·sec^−1·lo^−1 | respiration rate in response to ADP (state-3 respiration mediated by ETF) (TA muscles [2]; permeabilized TA muscle): unchanged | state 3 respiration rates with complex I+II substrates (P I+II) versus control (TA muscles [2]; permeabilized TA muscle, addition of succinate): no difference | electron transport through complex I (NADH dehydrogenase) respiration rate (TA muscles [2]; permeabilized TA muscle, after titration of glutamate, p=0.2 versus control): 33±3 pmol·sec^−1lo^−1

From patent publication US9018188B2, “MicroRNA inhibitors” (Ottawa Hospital Research Institute, priority 2011, dated 2015)
